From US10064883B2, “Lipiodol-based anti-tumour emulsion for treating cancer” (CHU DE DIJON, priority 2012, dated 2018)

Key:
Format in all cases: cell-based
[1] = tested on: HepG2; assay: in vitro effectiveness of anticancer agents on CHC cell line HepG2
[2] = tested on: SNU-398; assay: in vitro effectiveness of anticancer agents on CHC cell line SNU-398; details: SNU-398 CHC cell line
[3] = tested on: SNU-449; assay: in vitro effectiveness of anticancer agents on CHC cell line SNU-449; details: SNU-449 CHC cell line

Measured: effectiveness among the anticancer agents in vitro

CC(=O)[C@]1(O)Cc2c(O)c3c(c(O)c2[C@@H](O[C@H]2C[C@H](N)[C@H](O)[C@H](C)O2)C1)C(=O)c1ccccc1C3=O [Idarubicin]
most effective: all assays above
